What was measured:
[1] = test system: C1013G/CXCR4 variant-harboring BCWM.1 cells; assay: In vivo dissemination of C1013G/CXCR4-mutated WM cells (immunohistochemistry for human CD20 and CXCR4); set-up: species or system SCID/Bg mice; conditions: 10 mg/kg intraperitoneally, 3-4 times per week for 3 weeks
Protocol: FIGS. 20A-20E: FIGS. 20A-20E show representative histochemical images of the effect of BMS-936564 on C1013G/CXCR4-mutated cells in WM cells in vivo. SCID/Bg mice were injected intravenously with either C1013G/CXCR4 variant-harboring BCWM.1 cells or empty/control vector-infected cells (control cells). Mice were treated with either BMS-936564 or control antibody (10 mg/kg, intraperitoneally; ×3/4/week; mice: 5/group). After 3 weeks mice were euthanized and organs harvested. Hematoxylin-eosin immunohistochemical staining for human CD20 and CXCR4 were performed on femur BM (FIG. 20A), liver (FIG. 20B), kidney (FIG. 20C), lung (FIG. 20D), and lymph nodes (FIG. 20E) (Nikon, Melville, N.Y.; 4×, 10× or 20× magnifications are shown).
Murine tissues (BM, liver, kidney, lung and lymph nodes) were analyzed and quantified for the expression of human CD20 and human CXCR4. These tissues were fixed in formalin 10%, ethanol 70% was used as storage solution; and embedded in paraffin. Paraffin sections were incubated with anti-human-CXCR4 (Abcam, Cambridge, Mass.), and anti-human-CD20 (Dako, Carpinteria, Calif.) monoclonal antibodies, using the Leica Bond III automated staining platform (Leica Biosystems, Buffalo Grove, Ill.). […] Quantification of CD20 and CXCR4 staining was performed using NIS Elements software (Nikon, Melville, N.Y.). […]

[2] = test system: C1013G/CXCR4-infected BCWM.1 cells; assay: [3H]-thymidine uptake proliferation assay of C1013G/CXCR4-infected cells; format: cell-based, human; conditions: in the context of the BM microenvironment, 48 h
Protocol: (§1) FIGS. 21A-21D: FIGS. 21A-21D show BMS-936564 targets C1013G/CXCR4-mutated cells in WM cells in the context of BM. C1013G/CXCR4-infected BCWM.1 cells were tested for their migratory properties using a transwell migration assay. Cells were exposed to increasing concentrations of BMS-936564 and migration was determined after 5 h. The transwell migration assay was performed in presence of either primary WM BM-MSCs (FIG. 21A) or SDF-1α (FIG. 21B). In both cases, BMS-936564-dependent inhibition of WM cell migration was observed. C1013G/CXCR4-infected BCWM.1 cells were treated with BMS-936564/for 4 h and subsequently tested for adhesion to primary WM BM-MSCs. […] C1013G/CXCR4-infected BCWM.1 cells were cultured with control media and with BMS-936564 for 48 h in the presence or absence of primary WM BM-MSCs. Cell proliferation was assessed using [^3H]-thymidine uptake assay (FIG. 21D). Bars indicate standard deviations. P indicates P value. All data represent mean (±sd) of triplicate experiments. […].

[3] = test system: C1013G/CXCR4-infected BCWM.1 cells; assay: Transwell migration assay of C1013G/CXCR4-infected cells; format: cell-based, human; conditions: in the context of the BM microenvironment
Protocol: as §1

[4] = test system: C1013G/CXCR4-mutated cells; assay: Western blot of survival and apoptosis-related proteins in C1013G/CXCR4-WM cells; format: cell-based, human
Protocol: FIGS. 22A-22C: FIGS. 22A-22C show the effect of BMS-936564 on survival and apoptosis-related signal proteins in C1013G/CXCR4-WM cells. C1013G/CXCR4-mutated cells were cultured in presence or absence of BMS-936564 for 6 h, showing inhibition of phospho(p)-ERK, ERK, p-Akt, Akt, p-Src (FIG. 22A). Similarly, cells were exposed to the compound for 14 h, and induction of apoptosis-related pathways was observed (p-GSK3β, and p-β-catenin (FIG. 22B), and PARP and Caspase-9 (FIG. 22C)).
Protein lysates were obtained from WM cells by homogenization under nondenaturing conditions in lysis buffer (Cell Signaling Technology, Beverly, Mass.) supplemented with 5 mM NaF, 2 mM Na3VO4, 1 mM PMSF ([…]), 5 μg/mL leupeptine, and 5 μg/mL aprotinin. Whole-cell lysates were subjected to sodium dodecyl sulfate-polyacrylamide gel electrophoresis (SDS-PAGE) and transferred to polyvinylidene difluoride (PVDF) membrane (Bio-Rad Laboratories, Hercules, Calif.). The antibodies used for immunoblotting included: anti-phospho(p)-ERK, anti-ERK, anti-p-Akt, anti-Akt, anti-p-Src, anti-Src, anti-caspase-9, anti-PARP, anti-p-β-catenin, anti-β-catenin, anti-p-GSK3, anti-GAPDH and anti-α-tubulin antibodies (Cell Signaling, Danvers, Mass.).

WM cell lines = assay: Adhesion of WM cells to primary WM BM-MSCs; format: cell-based, human; conditions: 4 h treatment, adhesion after 2 h
Protocol: FIGS. 15A-15C: FIGS. 15A-15C show the effect of BMS-936564 on adhesion and proliferation of WM cells in vitro. WM cell lines were treated with BMS-936564 for 4 h and subsequently tested for adhesion to primary WM BM-MSCs. […] WM cell lines, MWCL.1 (FIG. 15B) and BCWN.1 (FIG. 15C) were cultured with control media and with BMS-936564 for 48 h in the presence or absence of primary WM BMMSCs. Cell proliferation was assessed using a [^3H]-thymidine uptake assay. Bars indicate standard deviations. P indicates P value. All data represent mean (±sd) of triplicate experiments. The CXCR4 antagonist, […] (Sigma-Aldrich, St. Louis, Mo.), was used as control.

[5] = test system: C1013G/CXCR4-infected BCWM.1 cells; assay: Adhesion of C1013G/CXCR4-infected cells to primary WM BM-MSCs; format: cell-based, human; conditions: in the context of the BM microenvironment
Protocol: as §1

BMS-936564: fully human anti-CXCR4 monoclonal antibody; VH SEQ ID NO: 25, VL SEQ ID NO: 29
involvement of lymph nodes [1]: absent | CXCR4+/CD20+ cell infiltration in femur, liver, kidney and lung ([1]; vs control antibody-treated mice): significant reduction | targeting proliferative properties of CXCR4-mutated cells [2]: equally active | targeting migration of CXCR4-mutated cells [3]: equally active | p-ERK, p-Akt, and p-Src in WM cells harboring the C1013G/CXCR4 mutation ([4]; 6 h): dose-dependent inhibition | GSK3-β/β-catenin signaling in CXCR4-mutated WM cells ([4]; 14 h): up-regulation of p-GSK3-β/p-β-catenin and β-catenin degradation | caspase-9- and PARP-cleavage in CXCR4-mutated WM cells ([4]; 14 h): increased | WM cell adhesion to WM BM-MSCs (WM cell lines): inhibition | targeting adhesion of CXCR4-mutated cells [5]: equally active
